Data published in patent US4981950A, “Vasoconstrictor peptide” (Takeda Chemical Ind., Ltd., priority 1987, dated 1991).

Key:
guinea pig right atrium = test: Assay of cardiotonic action (tension and heart rate of suspended right atrium specimens); conditions: assay (2); purified compound I from porcine aortic endothelial cell culture supernatant
Protocol: Instead of the porcine right coronary artery spiral specimens used in the assay described in the above item (1), guinea pig right atrium suspended specimens are used, and the tension and the heart rate per minute are measured according to the same procedure as described in (1). (3) ED50
(§1) The activity of the compound I obtained in 2 (iii) above was assayed by the method of Reference Example (1) and (2).

[1] = test system: porcine right coronary artery; test: Assay of vascular smooth muscle constrictor activity (isometric tension of intima-denuded artery spiral specimens); conditions: assay (1); purified compound I from porcine aortic endothelial cell culture supernatant; Krebs-Ringer solution, 37° C.
Protocol: Porcine right coronary artery spiral specimens (2×20 mm) with the intima denuded by rubbing with a small swab are suspended in 3 ml of Krebs-Ringer solution maintained at 37° C. and saturated with the mixed gas containing 5% carbon dioxide and 95% oxygen by volume. After setting the basal tension to 1 g, the isometric tension is measured with tension transducers.
as §1

CC[C@H](C)[C@H](NC(=O)[C@H](CC(=O)O)NC(=O)[C@H](CC(C)C)NC(=O)[C@H](Cc1c[nH]cn1)NC(=O)[C@@H]1CSSC[C@H](N)C(=O)N[C@@H](CO)C(=O)N[C@H]2CSSC[C@H](NC(=O)[C@H](CCC(=O)O)NC(=O)[C@H](CCCCN)NC(=O)[C@H](CC(=O)O)NC(=O)[C@H](CCSC)NC(=O)[C@H](CC(C)C)NC(=O)[C@H](CO)NC(=O)[C@H](CO)NC2=O)C(=O)N[C@@H](C(C)C)C(=O)N[C@@H](Cc2ccc(O)cc2)C(=O)N[C@@H](Cc2ccccc2)C(=O)N1)C(=O)N[C@H](C(=O)N[C@@H](Cc1c[nH]c2ccccc12)C(=O)O)[C@@H](C)CC [compound I]
ED50 for cardiotonic action to guinea pig right atrium (guinea pig right atrium): 1 nM
ED50 for smooth muscle constrictor activity to porcine coronary artery [1]: 4 to 5×10^-10 mole/l
